The record followed here is patent US8067424B2, “Selective inhibitors for cyclin-dependent kinases” (Emory University, priority 2007, dated 2011).

Format in all cases: biochemical
One test addresses p38α MAPK (Homo sapiens, UniProt Q16539). The test can be described thus: Kinase screen: SAPK 2a/p38 assay. As to the method: (§1) Generally, the same procedure was used for all assays. Since the total assay volume was 25.5 microliters, 0.5 microliters of inhibitors at 51× assay concentration were added to the plates before any other addition.
(§2) The basic procedure was to add 0.5 microliters inhibitor/control in DMSO to plate. Fifteen microliters of enzyme/substrate/buffer mix were added and incubated for 5 min. Ten microliters MgATP at the relevant concentration were added and incubated for 30 min. The assay was stopped by adding 5 microliters of 3% orthophosphoric acid. The assay was transferred to a p81 filter plate and read in a scintillation counter of 30 sec/well. Note that this assay procedure was not followed for MKK1, which instead involved a two-step assay, and PKC alpha, which required the addition of lipid vesicles.
SAPK 2a/p38 assay: SAPK 2a/p38 (5-20 mU diluted in 50 mM Tris pH 7.5, 0.1 mM EGTA, 0.1 mM Na3VO4, 0.1% b-mercaptoethanol, 1 mg/ml BSA) was assayed against MBP in a final volume of 25.5 μl containing 25 mM Tris pH 7.5, 0.1 mM EGTA, 0.33 mg/ml MBP, 10 mM magnesium acetate and 0.05 mM [33P-g-ATP] (50-1000 cpm/pmole) and incubated for 30 min at room temperature. Assays were stopped by addition of 5 μl of 0.5 M (3%) orthophosphoric acid and then harvested onto P81 Unifilter plates with a wash buffer of 50 mM orthophosphoric acid.

The target in another test is S6K1 (Homo sapiens, UniProt P23443). The test can be described thus: Kinase screen: S6K1/P70 S6K assay. As for the experimental part: as §1, §2
(§3) (50-1000 cpm/pmole) and incubated for 30 min at room temperature. Assays were stopped by addition of 5 μl of 0.5 M (3%) orthophosphoric acid and then harvested onto P81 Unifilter plates with a wash buffer of 50 mM orthophosphoric acid.

Another test has as its target GSK3β (Homo sapiens, UniProt P49841). The test can be described thus: Kinase screen: GSK3b assay. As for the experimental part: as §1, §2, §3
Another test addresses CK1 (Homo sapiens, UniProt P48730). The test can be described thus: Kinase screen: CK1 assay. As to the method:
Generally, the same procedure was used for all assays. […] The basic procedure was to add 0.5 microliters inhibitor/control in DMSO to plate. Fifteen microliters of enzyme/substrate/buffer mix were added and incubated for 5 min. Ten microliters MgATP at the relevant concentration were added and incubated for 30 min. […] The assay was transferred to a p81 filter plate and read in a scintillation counter of 30 sec/well. Note that this assay procedure was not followed for MKK1, which instead involved a two-step assay, and PKC alpha, which required the addition of lipid vesicles. CK1 assay: […]

The next test has as its target PIM1 (Homo sapiens, UniProt P11309). The test can be described thus: Kinase screen: PIM1 assay. As to the method: as §1, §2
PIM1 assay: PIM1 (5-20 mU diluted in 50 mM Tris pH 7.5, 0.1 mM EGTA, 0.1% b-mercaptoethanol, 1 mg/ml BSA) was assayed against a substrate peptide ([…]) (SEQ ID NO: 23) in a final volume of 25.5 μl containing 50 mM Tris pH 7.5, 0.05% b-mercaptoethanol, 300 μM substrate peptide, 10 mM magnesium acetate and 0.02 mM [33P-g-ATP] (50-1000 cpm/pmole) and incubated for 30 min at room temperature. Assays were stopped by addition of 5 μl of 0.5 M (3%) orthophosphoric acid and then harvested onto P81 Unifilter plates with a wash buffer of 50 mM orthophosphoric acid.

Another test concerns the target PIM2 (Homo sapiens, UniProt Q9P1W9). The test can be described thus: Kinase screen: PIM2 assay. As for the experimental part:
as §1, §2
PIM2 assay: 5-20 mU of PIM2 (diluted in 50 mM Tris (pH 7.5), 0.1 mM EGTA, 1 mg/ml BSA, 0.1%, b-Mercaptoethanol) was assayed against substrate peptide ([…]) (SEQ ID NO: 23) in a final volume of 25.5 μl containing 50 mM Tris (pH 7.5), 0.1 mM EGTA, 0.5 mM CaCl2, 0.3 μM calmodulin, 0.1%, b-Mercaptoethanol, 300 μM substrate peptide, 10 mM magnesium acetate and 0.005 mM [33P-g-ATP] (500-1000 cpm/pmole) and incubated for 30 mins at room temperature. Assays were stopped by addition of 5 μl of 0.5M (3%) orthophosphoric acid. Assays were harvested onto P81 Unifilter plates using a wash buffer of 50 mM orthophosphoric acid.

The next test has as its target Lck (Homo sapiens, UniProt P06239). The test can be described thus: Kinase screen: LCK assay. As for the experimental part: as §1, §2
(500-1000 cpm/pmole) and incubated for 15 min at room temperature Assays were stopped by addition of 5 μl of 0.5 M (3%) orthophosphoric acid and then harvested onto P81 Unifilter plates with a wash buffer of 50 mM orthophosphoric acid.

Another test deals with FGF-R1 (Homo sapiens, UniProt P11362). The test can be described thus: Kinase screen: FGF-R1 assay. The note with it: 10 micromolar compound; for remaining activity at 10 µM: read-out: mean activity remaining (as a percentage of the original activity), FGF-R1. As to the method:
as §1, §2
FGF-R1 assay: FGF-R1 (5-20 mU diluted in 50 mM Tris pH 7.5, 0.1 mM EGTA, 1 mg/ml BSA) was assayed against a substrate peptide (Poly Glut Tyr) in a final volume of 25.5 μl containing 50 mM Tris pH 7.5, 1 mg/ml substrate peptide, 10 mM magnesium acetate and 0.02 mM [33P-g-ATP] (50-1000 cpm/pmole) and incubated for 30 min at room temperature. Assays were stopped by addition of 5 μl of 0.5 M (3%) orthophosphoric acid and then harvested onto P81 Unifilter plates with a wash buffer of 50 mM orthophosphoric acid.

[1] abbreviates: 10 micromolar compound, read-out: mean activity remaining (as a percentage of the original activity), p38a2 MAPK.
Where [2] appears, read: 10 micromolar compound, read-out: mean activity remaining (as a percentage of the original activity), S6K1.
Setting [3] is: 10 micromolar compound, read-out: mean activity remaining (as a percentage of the original activity), GSK 3b.
Where [4] appears, read: 0.5 h, 10 micromolar compound, read-out: mean activity remaining (as a percentage of the original activity), CK 1.
[5] abbreviates: 10 micromolar compound, read-out: mean activity remaining (as a percentage of the original activity), PIM1.
Where [6] appears, read: 10 micromolar compound, read-out: mean activity remaining (as a percentage of the original activity), PIM2.
Where [7] appears, read: 10 micromolar compound, read-out: mean activity remaining (as a percentage of the original activity), Lck.

Molecules are shown by their SMILES. Where two headings read alike, the source gives them in different places.

Sequence of p38α MAPK (Q16539 whole entry): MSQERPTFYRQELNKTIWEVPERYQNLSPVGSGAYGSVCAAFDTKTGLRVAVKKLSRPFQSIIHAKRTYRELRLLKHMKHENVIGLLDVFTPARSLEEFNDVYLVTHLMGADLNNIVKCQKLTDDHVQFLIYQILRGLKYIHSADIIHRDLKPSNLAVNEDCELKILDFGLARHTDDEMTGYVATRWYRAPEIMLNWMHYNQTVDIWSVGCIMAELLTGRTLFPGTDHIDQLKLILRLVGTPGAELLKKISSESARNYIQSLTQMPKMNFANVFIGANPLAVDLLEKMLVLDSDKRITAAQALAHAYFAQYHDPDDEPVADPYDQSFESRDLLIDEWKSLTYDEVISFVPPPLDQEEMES
Sequence of PIM2 (Q9P1W9 whole entry, species assumed): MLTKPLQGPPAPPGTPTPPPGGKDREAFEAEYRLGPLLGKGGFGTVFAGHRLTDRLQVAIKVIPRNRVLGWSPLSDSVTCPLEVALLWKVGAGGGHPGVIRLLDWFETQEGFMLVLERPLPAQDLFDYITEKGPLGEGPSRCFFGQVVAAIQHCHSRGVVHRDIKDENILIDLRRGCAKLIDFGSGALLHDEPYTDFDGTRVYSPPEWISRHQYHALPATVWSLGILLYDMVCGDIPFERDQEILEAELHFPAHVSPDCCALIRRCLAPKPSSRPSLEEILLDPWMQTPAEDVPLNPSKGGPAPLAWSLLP
Sequence of S6K1 (P23443 whole entry, species assumed): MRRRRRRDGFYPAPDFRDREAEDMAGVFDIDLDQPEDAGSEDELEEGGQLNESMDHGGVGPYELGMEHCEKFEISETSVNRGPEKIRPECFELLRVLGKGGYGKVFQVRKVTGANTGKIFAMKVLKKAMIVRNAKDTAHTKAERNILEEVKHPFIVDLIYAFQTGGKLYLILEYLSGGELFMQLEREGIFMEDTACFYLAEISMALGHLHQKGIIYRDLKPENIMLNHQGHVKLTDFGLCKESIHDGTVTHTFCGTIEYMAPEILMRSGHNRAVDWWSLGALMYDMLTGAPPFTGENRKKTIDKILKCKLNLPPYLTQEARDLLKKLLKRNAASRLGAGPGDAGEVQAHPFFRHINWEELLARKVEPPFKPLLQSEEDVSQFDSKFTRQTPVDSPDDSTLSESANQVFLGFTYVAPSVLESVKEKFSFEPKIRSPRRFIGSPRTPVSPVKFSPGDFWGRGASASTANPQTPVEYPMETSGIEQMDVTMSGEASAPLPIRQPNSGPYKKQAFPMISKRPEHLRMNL
Sequence of Lck (P06239 whole entry, species assumed): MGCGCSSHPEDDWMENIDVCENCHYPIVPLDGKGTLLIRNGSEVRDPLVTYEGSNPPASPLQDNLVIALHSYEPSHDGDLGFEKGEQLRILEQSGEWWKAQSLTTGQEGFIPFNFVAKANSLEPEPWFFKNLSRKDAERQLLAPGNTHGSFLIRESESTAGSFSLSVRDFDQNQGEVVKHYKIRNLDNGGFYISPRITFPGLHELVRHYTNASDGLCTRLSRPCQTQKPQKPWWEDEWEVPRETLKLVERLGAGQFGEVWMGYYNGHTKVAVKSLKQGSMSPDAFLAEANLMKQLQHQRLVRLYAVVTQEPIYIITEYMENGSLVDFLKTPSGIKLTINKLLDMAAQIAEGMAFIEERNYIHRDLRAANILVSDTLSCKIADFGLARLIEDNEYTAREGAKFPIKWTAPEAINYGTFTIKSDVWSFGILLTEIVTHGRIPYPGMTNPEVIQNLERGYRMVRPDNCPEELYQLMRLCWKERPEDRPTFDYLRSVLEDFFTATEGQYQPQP
Sequence of GSK3β (P49841 whole entry, species assumed): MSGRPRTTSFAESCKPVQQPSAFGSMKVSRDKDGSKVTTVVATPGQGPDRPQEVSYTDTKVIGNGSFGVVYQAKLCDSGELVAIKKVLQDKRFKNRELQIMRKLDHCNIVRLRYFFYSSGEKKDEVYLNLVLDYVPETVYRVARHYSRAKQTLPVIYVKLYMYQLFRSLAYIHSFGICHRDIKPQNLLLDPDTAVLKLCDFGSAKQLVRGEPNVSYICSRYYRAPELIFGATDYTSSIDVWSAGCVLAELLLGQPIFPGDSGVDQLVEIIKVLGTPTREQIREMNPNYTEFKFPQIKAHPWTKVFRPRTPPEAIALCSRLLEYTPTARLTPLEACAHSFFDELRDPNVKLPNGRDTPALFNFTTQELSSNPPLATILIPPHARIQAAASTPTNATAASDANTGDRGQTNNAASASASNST
Sequence of FGF-R1 (P11362 22-822, species assumed): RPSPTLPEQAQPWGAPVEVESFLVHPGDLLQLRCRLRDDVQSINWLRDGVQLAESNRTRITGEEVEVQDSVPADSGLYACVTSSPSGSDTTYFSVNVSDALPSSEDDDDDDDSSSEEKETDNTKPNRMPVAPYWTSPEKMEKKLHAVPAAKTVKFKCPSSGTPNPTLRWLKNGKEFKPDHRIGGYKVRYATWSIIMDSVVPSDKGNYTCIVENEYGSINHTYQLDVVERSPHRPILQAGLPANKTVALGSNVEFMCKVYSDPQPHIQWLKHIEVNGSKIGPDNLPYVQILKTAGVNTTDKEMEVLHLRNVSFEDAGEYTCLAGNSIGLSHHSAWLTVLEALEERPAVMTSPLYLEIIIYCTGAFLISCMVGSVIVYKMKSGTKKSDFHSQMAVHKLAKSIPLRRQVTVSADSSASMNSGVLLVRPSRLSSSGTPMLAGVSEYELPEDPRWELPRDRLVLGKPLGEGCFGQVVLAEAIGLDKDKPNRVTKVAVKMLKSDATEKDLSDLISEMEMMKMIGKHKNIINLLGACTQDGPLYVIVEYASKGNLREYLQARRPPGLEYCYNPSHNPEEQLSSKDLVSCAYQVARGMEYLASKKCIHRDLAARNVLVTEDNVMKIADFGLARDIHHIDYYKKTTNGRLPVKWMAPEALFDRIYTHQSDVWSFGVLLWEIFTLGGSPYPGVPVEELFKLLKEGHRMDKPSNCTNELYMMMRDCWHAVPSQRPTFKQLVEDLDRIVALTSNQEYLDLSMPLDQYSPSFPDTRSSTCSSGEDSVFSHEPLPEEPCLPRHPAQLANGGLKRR
Sequence of CK1 (P48730 whole entry): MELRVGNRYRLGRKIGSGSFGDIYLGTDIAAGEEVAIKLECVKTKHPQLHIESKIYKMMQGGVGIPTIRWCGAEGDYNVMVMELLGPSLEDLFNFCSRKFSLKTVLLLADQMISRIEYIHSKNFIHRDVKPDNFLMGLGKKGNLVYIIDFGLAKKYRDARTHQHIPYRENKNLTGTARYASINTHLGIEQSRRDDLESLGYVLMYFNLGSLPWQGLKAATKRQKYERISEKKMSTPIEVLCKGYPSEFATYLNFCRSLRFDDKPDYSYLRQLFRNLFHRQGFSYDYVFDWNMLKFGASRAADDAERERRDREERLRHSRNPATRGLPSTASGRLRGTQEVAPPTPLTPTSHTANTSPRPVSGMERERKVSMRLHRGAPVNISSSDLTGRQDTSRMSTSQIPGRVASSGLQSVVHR
Sequence of PIM1 (P11309 whole entry, species assumed): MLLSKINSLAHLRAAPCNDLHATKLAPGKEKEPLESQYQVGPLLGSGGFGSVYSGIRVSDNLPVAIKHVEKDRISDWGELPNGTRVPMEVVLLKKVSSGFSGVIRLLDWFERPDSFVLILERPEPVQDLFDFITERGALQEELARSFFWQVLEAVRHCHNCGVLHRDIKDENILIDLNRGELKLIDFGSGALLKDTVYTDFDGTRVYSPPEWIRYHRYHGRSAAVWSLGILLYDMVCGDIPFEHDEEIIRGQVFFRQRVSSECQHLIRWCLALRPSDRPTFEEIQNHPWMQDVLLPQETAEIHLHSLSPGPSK

Take `CC(C)c1cnn2c(NCc3ccccc3)cc(NCCCCCCCN)nc12` [BS-181]: the remaining activity (as a rule, the signal under treatment as a percentage of the control signal) at 10 µM on p38α MAPK (p38α MAPK, 10 μM, read-out: Mean Remaining Enzyme Activity (%)) amounted to 95%; at S6K1 (S6K1, 10 μM, read-out: Mean Remaining Enzyme Activity (%)), 95%; on GSK3β (GSK3β, 10 μM, read-out: Mean Remaining Enzyme Activity (%)) it was 112%; at CK1 (CK1, 10 μM, read-out: Mean Remaining Enzyme Activity (%)) it was 29%; on PIM1 (PIM1, 10 μM, read-out: Mean Remaining Enzyme Activity (%)), 88%; at PIM2 (PIM2, 10 μM, read-out: Mean Remaining Enzyme Activity (%)) it was 102%. Further, on Lck (Lck, 10 μM, read-out: Mean Remaining Enzyme Activity (%)), the remaining activity at 10 µM amounted to 95%.

`C=C[C@H](CO)Nc1cc(NCc2ccccc2)n2ncc(C(C)C)c2n1` [ICEC0065]: the remaining activity at 10 µM amounted to 94% at p38α MAPK (setting [1]); 78% at S6K1 (setting [2]); 92% on GSK3β (setting [3]); 19% at CK1 (setting [4]); 113% at PIM1 (setting [5]); 93% on PIM2 (setting [6]). For the same molecule, the remaining activity at 10 µM turned out to be 74% on Lck (setting [7]) and 87% on FGF-R1.

In the case of `CC(C)c1cnn2c(NCc3ccccc3)cc(N[C@@H](CO)[C@H](O)CO)nc12` [ICEC0318, (3S)-3-(7-(Benzylamino)-3-isopropylpyrazolo[1,5-a]pyrimidin-5-ylamino)butane-1,2,4-triol], the remaining activity at 10 µM stood at 98% on p38α MAPK (setting [1]); 77% on S6K1 (setting [2]); 63% at GSK3β (setting [3]); 19% on CK1 (0.5 h, read-out: mean activity remaining (as a percentage of the original activity), CK 1); 103% at PIM1 (setting [5]); 94% on PIM2 (setting [6]). Further, the remaining activity at 10 µM at Lck (setting [7]) was 85%; on FGF-R1, 86%.

As to `CC(C)c1cnn2c(NCc3ccccc3F)cc(NCCCCCN)nc12` [ICEC-0232], the “mean activity remaining (as a percentage of the original activity), p38a2 MAPK” value at p38α MAPK (10 micromolar compound) is on record as 86%. For the same molecule, at S6K1 (10 micromolar compound), the “mean activity remaining (as a percentage of the original activity), S6K1” value is on record as 42%. The “mean activity remaining (as a percentage of the original activity), GSK 3b” value on GSK3β (10 micromolar compound) was determined as 70%. Besides, at CK1 (10 micromolar compound), the “mean activity remaining (as a percentage of the original activity), CK 1” value was 9%. Also, the “mean activity remaining (as a percentage of the original activity), PIM1” value at PIM1 (10 micromolar compound) turned out to be 110%. In addition, at PIM2 (10 micromolar compound), the “mean activity remaining (as a percentage of the original activity), PIM2” value was 102%. Besides, the “mean activity remaining (as a percentage of the original activity), Lck” value at Lck (10 micromolar compound) came to 62%. Besides, the “mean activity remaining (as a percentage of the original activity), FGF-R1” value at FGF-R1 came out at 82%.

For the molecule `CC[C@H](CO)Nc1cc(NCc2ccccc2)n2ncc(C(C)C)c2n1` [ICEC0067], the remaining activity at 10 µM on p38α MAPK (setting [1]) was found to be 99%; at S6K1 (setting [2]), 74%; at GSK3β (setting [3]), 72%; on CK1 (setting [4]) it was 16%; at PIM1 (setting [5]), 107%; on PIM2 (setting [6]), 92%. The remaining activity at 10 µM on Lck (setting [7]) turned out to be 70%; at FGF-R1, 78%.
